Results taken from patent publication US8927500B2, “Peptidomimetic macrocycles” (Aileron Therapeutics, Inc., priority 2012, dated 2015).
Where a SMILES comes first, the peptide text is derived from it. Bridges are numbered along the chain shown (N, C = ends). [ ]: non-standard residue; d: D form. Trp(6-Cl) = N[C@@H](Cc1c[nH]c2cc(Cl)ccc12)C(=O)O; R8 = C=CCCCCCC[C@@](C)(N)C(=O)O; Cba = N[C@@H](CC1CCC1)C(=O)O; S5 = C=CCCC[C@](C)(N)C(=O)O; Nle = CCCC[C@H](N)C(=O)O

Columns and labels:
[1] = target: MDM2 (Homo sapiens, UniProt Q00987); assay: Competitive fluorescence polarization assay for MDM2; type: binding; conditions: competitive FP assay, MDM2; for IC50: read-out: IC50 (MDM2); for Ki: read-out: Ki (MDM2)
[2] = target: T1, MDMX (Homo sapiens, UniProt O15151); assay: Competitive fluorescence polarization assay for MDMX; type: binding; conditions: competitive FP assay; for IC50: read-out: IC50 (MDMX); for Ki: read-out: Ki (MDMX)
T1 sequence (O15151 1-125): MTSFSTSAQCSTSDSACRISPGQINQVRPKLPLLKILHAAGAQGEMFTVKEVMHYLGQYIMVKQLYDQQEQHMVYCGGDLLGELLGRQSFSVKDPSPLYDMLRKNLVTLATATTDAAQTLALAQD

MDM2, sequence (Q00987 1-125): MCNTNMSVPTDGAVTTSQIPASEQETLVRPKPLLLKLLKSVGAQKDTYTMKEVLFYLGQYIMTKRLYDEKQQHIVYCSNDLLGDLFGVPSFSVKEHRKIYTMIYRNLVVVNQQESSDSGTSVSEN

Row | SMILES | IC50 [1] [nM] | Ki [1] [nM] | IC50 [2] [nM] | Ki [2] [nM]
1 | CC(=O)N[C@@H](C)C(=O)N[C@@H](CC(C)C)C(=O)N[C@H](C(=O)N[C@@H](Cc1ccccc1)C(=O)N[C@]1(C)CCCCCCC=CCCC[C@@](C)(C(=O)N[C@@H](CO)C(=O)N[C@@H](C)C(=O)N[C@@H](C)C(=O)N[C@@H](C)C(N)=O)NC(=O)[C@H](CC2CCC2)NC(=O)[C@H](CCC(N)=O)NC(=O)[C@H](C)NC(=O)[C@H](Cc2c[nH]c3ccccc23)NC(=O)[C@H](Cc2ccc(O)cc2)NC(=O)[C@H](CCC(=O)O)NC1=O)[C@@H](C)O [compound 329] | 10 to 100 | < 10 | 10 to 100 | 10 to 100
2 | CC(=O)N[C@@H](Cc1ccccc1)C(=O)N[C@]1(C)CCCCCCC=CCCC[C@@](C)(C(=O)N[C@@H](C)C(=O)N[C@@H](C)C(=O)N[C@@H](C)C(=O)N[C@@H](C)C(=O)N[C@@H](C)C(=O)N[C@@H](C)C(=O)N[C@H](C)C(N)=O)NC(=O)[C@H](CC(C)C)NC(=O)[C@H](C)NC(=O)[C@H](CCC(=O)O)NC(=O)[C@H](Cc2c[nH]c3cc(Cl)ccc23)NC(=O)[C@H](Cc2ccc(O)cc2)NC(=O)[C@H](C)NC1=O [compound 339] (Ac-F[R8]AY[Trp(6-Cl)]EAL[S5]AAAAAA[dA]-NH2; staple 2-9) | < 10 | < 10 | 100 to 1000 | 10 to 100
3 | CC(=O)N[C@@H](CC(C)C)C(=O)N[C@H](C(=O)N[C@@H](Cc1ccccc1)C(=O)N[C@]1(C)CCCCCCC=CCCC[C@@](C)(C(=O)N[C@@H](CO)C(=O)N[C@@H](C)C(=O)N[C@@H](C)C(N)=O)NC(=O)[C@H](CC2CCC2)NC(=O)[C@H](CCCNC(=N)N)NC(=O)[C@H](C)NC(=O)[C@H](Cc2c[nH]c3ccccc23)NC(=O)[C@H](Cc2ccc(O)cc2)NC(=O)[C@H](CCC(=O)O)NC1=O)[C@@H](C)O [compound 363] (Ac-LTF[R8]EYWAR[Cba][S5]SAA-NH2; staple 4-11) | 10 to 100 | < 10 | 10 to 100 | < 10
4 | CC(=O)N[C@@H](CC(C)C)C(=O)N[C@H](C(=O)N[C@@H](Cc1ccccc1)C(=O)N[C@]1(C)CCCCCCC=CCCC[C@@](C)(C(=O)N[C@@H](CO)C(=O)N[C@@H](CCCNC(=N)N)C(=O)N[C@@H](C)C(N)=O)NC(=O)[C@H](CC2CCC2)NC(=O)[C@H](CCC(N)=O)NC(=O)[C@H](C)NC(=O)[C@H](Cc2c[nH]c3ccccc23)NC(=O)[C@H](Cc2ccc(O)cc2)NC(=O)[C@H](CCC(=O)O)NC1=O)[C@@H](C)O [compound 365] (Ac-LTF[R8]EYWAQ[Cba][S5]SRA-NH2; staple 4-11) | 10 to 100 | < 10 | 10 to 100 | < 10
5 | CCCC[C@H](NC(=O)[C@H](C)NC(=O)[C@H](C)NC(=O)[C@]1(C)CCCC=CCCCCCC[C@@](C)(NC(=O)[C@H](Cc2ccccc2)NC(=O)[C@@H](NC(=O)[C@H](C)NC(C)=O)[C@@H](C)O)C(=O)N[C@@H](CCC(=O)O)C(=O)N[C@@H](Cc2ccc(O)cc2)C(=O)N[C@@H](Cc2c[nH]c3ccccc23)C(=O)N[C@@H](C)C(=O)N[C@@H](CCC(N)=O)C(=O)N[C@@H](CC(C)C)C(=O)N1)C(=O)N[C@@H](C)C(N)=O [compound 370] (Ac-ATF[R8]EYWAQL[S5]AA[Nle]A-NH2; staple 4-11) | 10 to 100 | < 10 | 10 to 100 | 10 to 100
6 | CCCC[C@H](NC(=O)[C@H](C)NC(=O)[C@H](C)NC(=O)[C@]1(C)CCCC=CCCCCCC[C@@](C)(NC(=O)[C@H](Cc2ccccc2)NC(=O)[C@H](C)NC(=O)[C@H](C)NC(=O)[C@H](C)NC(C)=O)C(=O)N[C@@H](CCC(=O)O)C(=O)N[C@@H](Cc2ccc(O)cc2)C(=O)N[C@@H](Cc2c[nH]c3ccccc23)C(=O)N[C@@H](C)C(=O)N[C@@H](CCC(N)=O)C(=O)N[C@@H](CC(C)C)C(=O)N1)C(=O)N[C@@H](C)C(N)=O [compound 372] (Ac-AAAF[R8]EYWAQL[S5]AA[Nle]A-NH2; staple 5-12) | 100 to 1000 | 10 to 100 | 100 to 1000 | 10 to 100
7 | CCCC[C@H](NC(=O)[C@H](C)NC(=O)[C@H](C)NC(=O)[C@]1(C)CCCC=CCCCCCC[C@@](C)(NC(=O)[C@H](Cc2ccccc2)NC(=O)[C@H](C)NC(=O)[C@H](C)NC(=O)[C@H](C)NC(=O)[C@H](C)NC(C)=O)C(=O)N[C@@H](CCC(=O)O)C(=O)N[C@@H](Cc2ccc(O)cc2)C(=O)N[C@@H](Cc2c[nH]c3ccccc23)C(=O)N[C@@H](C)C(=O)N[C@@H](CCC(N)=O)C(=O)N[C@@H](CC(C)C)C(=O)N1)C(=O)N[C@@H](C)C(N)=O [compound 373] (Ac-AAAAF[R8]EYWAQL[S5]AA[Nle]A-NH2; staple 6-13) | 10 to 100 | 10 to 100 | 10 to 100 | 10 to 100
8 | CCCC[C@H](NC(=O)[C@H](C)NC(=O)[C@H](C)NC(=O)[C@]1(C)CCCC=CCCCCCC[C@@](C)(NC(=O)[C@H](Cc2ccccc2)NC(=O)[C@@H](NC(=O)[C@H](C)NC(=O)[C@H](C)NC(C)=O)[C@@H](C)O)C(=O)N[C@@H](CCC(=O)O)C(=O)N[C@@H](Cc2ccc(O)cc2)C(=O)N[C@@H](Cc2c[nH]c3ccccc23)C(=O)N[C@@H](C)C(=O)N[C@@H](CCC(N)=O)C(=O)N[C@@H](CC(C)C)C(=O)N1)C(=O)N[C@@H](C)C(N)=O [compound 374] (Ac-AATF[R8]EYWAQL[S5]AA[Nle]A-NH2; staple 5-12) | 10 to 100 | < 10 | 10 to 100 | < 10
9 | CCCC[C@H](NC(=O)[C@H](C)NC(=O)[C@H](C)NC(=O)[C@]1(C)CCCC=CCCCCCC[C@@](C)(NC(=O)[C@H](Cc2ccccc2)NC(=O)[C@@H](NC(=O)[C@H](CC(C)C)NC(=O)[C@H](C)NC(=O)[C@H](C)NC(C)=O)[C@@H](C)O)C(=O)N[C@@H](CCC(=O)O)C(=O)N[C@@H](Cc2ccc(O)cc2)C(=O)N[C@@H](Cc2c[nH]c3ccccc23)C(=O)N[C@@H](C)C(=O)N[C@@H](CCC(N)=O)C(=O)N[C@@H](CC(C)C)C(=O)N1)C(=O)N[C@@H](C)C(N)=O [compound 375] (Ac-AALTF[R8]EYWAQL[S5]AA[Nle]A-NH2; staple 6-13) | 10 to 100 | < 10 | 10 to 100 | < 10

Second part, the molecule after the results:

Row | IC50 [1] [nM] | Ki [1] [nM] | IC50 [2] [nM] | Ki [2] [nM] | SMILES
10 | 10 to 100 | 10 to 100 | > 1000 | 100 to 1000 | CCCC[C@H](NC(=O)[C@H](C)NC(=O)[C@H](C)NC(=O)[C@]1(C)CCCC=CCCCCCC[C@@](C)(NC(=O)[C@H](Cc2ccccc2)NC(=O)[C@@H](NC(=O)[C@H](CC(C)C)NC(C)=O)[C@@H](C)O)C(=O)N[C@@H](C)C(=O)N[C@@H](Cc2ccc(O)cc2)C(=O)N[C@@H](Cc2c[nH]c3ccccc23)C(=O)N[C@@H](C)C(=O)N[C@@H](CCC(N)=O)C(=O)N[C@@H](CCC(C)C)C(=O)N1)C(=O)N[C@@H](C)C(=O)N[C@@H](C)C(N)=O [compound 323]
11 | < 10 | < 10 | < 10 | < 10 | CC(=O)N[C@@H](CCCNC(=N)N)C(=O)N[C@H](C(=O)N[C@@H](Cc1ccccc1)C(=O)N[C@]1(C)CCCCCCC=CCCC[C@@](C)(C(=O)N[C@@H](CO)C(=O)N[C@@H](C)C(=O)N[C@@H](C)C(N)=O)NC(=O)[C@H](CC2CCC2)NC(=O)[C@H](CCC(N)=O)NC(=O)[C@H](C)NC(=O)[C@H](Cc2c[nH]c3ccccc23)NC(=O)[C@H](Cc2ccc(O)cc2)NC(=O)[C@H](CCC(=O)O)NC1=O)[C@@H](C)O [compound 360] (Ac-RTF[R8]EYWAQ[Cba][S5]SAA-NH2; staple 4-11)
12 | 10 to 100 | < 10 | 10 to 100 | < 10 | CC(=O)N[C@@H](CC(C)C)C(=O)N[C@H](C(=O)N[C@@H](Cc1ccccc1)C(=O)N[C@]1(C)CCCCCCC=CCCC[C@@](C)(C(=O)N[C@@H](CCCNC(=N)N)C(=O)N[C@@H](C)C(=O)N[C@@H](C)C(N)=O)NC(=O)[C@H](CC2CCC2)NC(=O)[C@H](CCC(N)=O)NC(=O)[C@H](C)NC(=O)[C@H](Cc2c[nH]c3ccccc23)NC(=O)[C@H](Cc2ccc(O)cc2)NC(=O)[C@H](CCC(=O)O)NC1=O)[C@@H](C)O [compound 364] (Ac-LTF[R8]EYWAQ[Cba][S5]RAA-NH2; staple 4-11)
13 | 10 to 100 | < 10 | 10 to 100 | 10 to 100 | CC(=O)N[C@@H](CC(C)C)C(=O)N[C@H](C(=O)N[C@@H](Cc1ccccc1)C(=O)N[C@]1(C)CCCCCCC=CCCC[C@@](C)(C(=O)N[C@@H](CO)C(=O)N[C@@H](C)C(=O)N[C@@H](CCCNC(=N)N)C(N)=O)NC(=O)[C@H](CC2CCC2)NC(=O)[C@H](CCC(N)=O)NC(=O)[C@H](C)NC(=O)[C@H](Cc2c[nH]c3ccccc23)NC(=O)[C@H](Cc2ccc(O)cc2)NC(=O)[C@H](CCC(=O)O)NC1=O)[C@@H](C)O [compound 366] (Ac-LTF[R8]EYWAQ[Cba][S5]SAR-NH2; staple 4-11)
14 | 100 to 1000 | 10 to 100 | 100 to 1000 | 10 to 100 | CCCC[C@H](NC(=O)[C@H](C)NC(=O)[C@H](C)NC(=O)[C@]1(C)CCCC=CCCCCCC[C@@](C)(NC(=O)[C@H](Cc2ccccc2)NC(=O)[C@H](C)NC(=O)[C@H](CC(C)C)NC(C)=O)C(=O)N[C@@H](CCC(=O)O)C(=O)N[C@@H](Cc2ccc(O)cc2)C(=O)N[C@@H](Cc2c[nH]c3ccccc23)C(=O)N[C@@H](C)C(=O)N[C@@H](CCC(N)=O)C(=O)N[C@@H](CC(C)C)C(=O)N1)C(=O)N[C@@H](C)C(N)=O [compound 369] (Ac-LAF[R8]EYWAQL[S5]AA[Nle]A-NH2; staple 4-11)
15 | 100 to 1000 | 10 to 100 | 100 to 1000 | 10 to 100 | CCCC[C@H](NC(=O)[C@H](C)NC(=O)[C@H](C)NC(=O)[C@]1(C)CCCC=CCCCCCC[C@@](C)(NC(=O)[C@H](Cc2ccccc2)NC(=O)[C@H](C)NC(=O)[C@H](C)NC(C)=O)C(=O)N[C@@H](CCC(=O)O)C(=O)N[C@@H](Cc2ccc(O)cc2)C(=O)N[C@@H](Cc2c[nH]c3ccccc23)C(=O)N[C@@H](C)C(=O)N[C@@H](CCC(N)=O)C(=O)N[C@@H](CC(C)C)C(=O)N1)C(=O)N[C@@H](C)C(N)=O [compound 371] (Ac-AAF[R8]EYWAQL[S5]AA[Nle]A-NH2; staple 4-11)
